pEC50: −log10 of the molar value.

Series [1] relates to C. elegans. Kind of series: C. elegans growth and development (toxicity) assay. It counts as in vivo. Conditions: doses 32nM to 500µM, hatching to first day of adulthood. The procedure: Delivery strategy: The indicated compound dosage is based on the total volume of the plates with the assumption that the water-soluble compound diffuses throughout the agar. The compound is dissolved in a working solution and then combined directly with the food bacteria before seeding on agar plates. The food spots are dried slowly, allowing the compound to diffuse into the food bacteria and the agar for 24 hours.
Growth and development assay results: High-resolution imaging and automated detection were used to precisely measure the growth rate of animals from hatching to the first day of adulthood (total of 4 days). The C. elegans growth and development assay is highly sensitive and widely used in toxicology studies. Performing this test over a range of doses helps to identify a set of doses that have a physiological impact and exclude dose ranges that are likely too toxic to benefit lifespan.

The target in series [2] is T1, A30P mutant α-Synuclein (Homo sapiens, UniProt P37840, A30P).
T1 construct: purchased rPeptide, Watkinsville, Georgia S-1005-2
Kind of series: Dynamic Light Scattering (DLS), induced aggregation. The series is classed as biochemical. Here is the method: Proteins were ultracentrifuged with 50,000 rpm (rounds per minute) for one hour at 2 °C. The supernatant was used for DLS measurements. DLS measurements were conducted with Malvern Zetasizer Nano (Malvern Panalytical Ltd, United Kingdom).
A30P mutant α-Synuclein (catalog S-1005-2, rPeptide, Watkinsville, Georgia) was solved in 20 mM phosphate, pH 7.4 buffer.

A short description of series [3]: Solubilization of Compound 4. It counts as physicochemical.
Series [4] addresses T2, mHTT (Homo sapiens, UniProt P42858).
T2 construct: host or cells: ST HDH Q111/111 mouse striatal cell line (knock-in locus)
Put plainly: mHTT levels in striatal cells (immunocytochemistry). The series is classed as cell-based, mouse. Conditions: STHdh 111/111; MW1 primary antibody; non-linear regression; read-out: EC 50 value for mHTT reduction.

Series [5] deals with zebrafish larvae. Kind of series: Motility Zebrafish Model (MPP+ exposure, photomotor assay and sleep).
Experimental: Six groups were included in each experiment. Immediately after spawning, 40 embryos per group were allocated to a 24-well plate and system water (solvent) was added to all wells. […] MPP+ was prepared immediately prior to incubation and solutions were changed daily. At 120 hpf, drug treatment and MPP+ exposure was ceased and a 3X wash was performed with system water. Larvae were then relocated to 96-well plates for behavioral recording and placed in a separate recording room for 24-hour acclimation. Prior to behavioral recording, wells were fully replenished system water.
Naive group was exposed to solvent only. Vehicle group was exposed to solvent and vehicle corresponding to the vehicle of 20 µM drug solution (0.02% DMSO). MPP+ positive control was exposed to solvent and 500 µM MPP+.
Behavioral data was recorded from 1 p.m. on 6 dpf until shortly after wakening on 7 dpf. The recording consisted of a photomotor assay in which lights switch off and on in 30-minute intervals between 1 p.m. and 6 p.m., producing a consistent photomotor response. […] Upon lights being turned on again, the larvae cease movement followed by a return to baseline. This cycle is repeated five times. Following the last lights-off phase, constant illumination is presented until lights turn off at 10 p.m. for the night. Lights turn on again at 8 a.m. the following day.
Average movement frequency was measured during 30-minute lights-on phases of photomotor assay.
Distance moved (mm) was defined as the average distance moved during 30-minute lights-on phases of photomotor assay.
All data are presented as mean ± standard error of the mean (sem). For analysis of differences between groups, a Kruskal-Wallis one-way ANOVA with Dunn's multiple comparison post hoc test was performed. P < 0.05 was considered statistically significant.
The test system of series [6] is STHdh 111/111 striatal cells. Kind of series: Cell viability after heat shock (CellTiter Glo). Conditions: heat shocked STHdh 111/111 versus STHdh 7/7 control cells.
Experimental: Cell culture - ST HDH Q111/111 (CH00095, Coriell Institute) striatal derived cell line were grown at 33°C in DMEM (Sigma-Aldrich), supplemented with 10% fetal bovine serum (FBS), 1% Penicillin-Streptomycin (ThermoFisher Scientific), and 0.4 mg/ml G418 (Geneticin; Invitrogen). ST HDH Q111/111 are mouse striatal cells with polyQ length of 111.
Pre-Treatment of striatal cell line - First the medium was removed and new DMEM (DMEM, high glucose, HEPES, no phenol red) medium, supplemented with 10% fetal bovine serum (FBS), 1% Penicillin-Streptomycin, containing 10 µM compound was added. The cells were incubated at 33 °C for 24 hours.
Heat shock - Cells were heat shocked for 3 hours at 41 °C.
Treatment - Medium was removed and new DMEM (DMEM, high glucose, HEPES, no phenol red) medium, supplemented with 1% fetal bovine serum (FBS), 1% Penicillin-Streptomycin, containing 10 µM compound was added. The cells were incubated at 33 °C for 48 hours.
Cell Viability - Cell viability was measured according to manufacturer recommendations with CellTiter Glo (Promega).
The subject of series [7] is CREB-binding protein (CBP) colocalization with mHTT. Kind of series: Co-localization of CREB-binding protein (CBP) with mHTT. The series is classed as in vivo, R6/2 mice. Conditions: treated animals of the R6/2 study versus untreated TG mice; p = 0.02. The text has this:
Staining - Goat anti-Rabbit IgG (H+L) Alexa Fluor 647 (1:500, ThermoFisher Invitrogen) was used as a secondary antibody for binding to CBP antibody. DAPI (Sigma-Aldrich) was used to identify the nuclei. Goat anti-Mouse IgG (H+L), Alexa Fluor 488 (1:500, A-11034, ThermoFisher Invitrogen) was used as a secondary antibody for binding to EM48 antibody. Mouse anti-human-mHTT (EM48, 1:500, Sigma-Aldrich), was used to stain huntingtin. Rabbit anti-CBP (1:100, Sigma-Aldrich) was used a primary antibody to stain CBP.
The blocking buffer was freshly prepared and consisted of PBS (Sigma-Aldrich) with 5% normal goat serum (NGS), 0.2% BSA, 0.2% lysine and 0.2% glycine. […] On day six, samples were washed and then incubated with DAPI containing mounting medium Fluoroshield (Sigma-Aldrich), in order to counterstain the nuclei and preserve the fluorescence. […]
CBP colocalization with mHTT and quantitative assessment of the images were measured (Lee, J. et al., Acta Neuropathol. 2017 Nov;[…]:729-748; Steffan, J.S. et al., Nature. 2001 Oct 18;413(6857):739-743; Nucifora, F.C. et al., Science. 2001 Mar 23;291(5512):2423-2428). In brief, regions of interest (colocalized areas) in multi-channel images from two or three of the overlapping fluorescence dyes were selected using the Plugin CoLoc2 of FIJI. The colocalization score of identified areas was calculated. […]

[8] abbreviates: by number, 100 µM equimolar Compound 4.
Setting [9] is: by volume, 100 µM equimolar Compound 4.

T2 sequence (P42858 with tags, fused parts or gaps with the stated changes): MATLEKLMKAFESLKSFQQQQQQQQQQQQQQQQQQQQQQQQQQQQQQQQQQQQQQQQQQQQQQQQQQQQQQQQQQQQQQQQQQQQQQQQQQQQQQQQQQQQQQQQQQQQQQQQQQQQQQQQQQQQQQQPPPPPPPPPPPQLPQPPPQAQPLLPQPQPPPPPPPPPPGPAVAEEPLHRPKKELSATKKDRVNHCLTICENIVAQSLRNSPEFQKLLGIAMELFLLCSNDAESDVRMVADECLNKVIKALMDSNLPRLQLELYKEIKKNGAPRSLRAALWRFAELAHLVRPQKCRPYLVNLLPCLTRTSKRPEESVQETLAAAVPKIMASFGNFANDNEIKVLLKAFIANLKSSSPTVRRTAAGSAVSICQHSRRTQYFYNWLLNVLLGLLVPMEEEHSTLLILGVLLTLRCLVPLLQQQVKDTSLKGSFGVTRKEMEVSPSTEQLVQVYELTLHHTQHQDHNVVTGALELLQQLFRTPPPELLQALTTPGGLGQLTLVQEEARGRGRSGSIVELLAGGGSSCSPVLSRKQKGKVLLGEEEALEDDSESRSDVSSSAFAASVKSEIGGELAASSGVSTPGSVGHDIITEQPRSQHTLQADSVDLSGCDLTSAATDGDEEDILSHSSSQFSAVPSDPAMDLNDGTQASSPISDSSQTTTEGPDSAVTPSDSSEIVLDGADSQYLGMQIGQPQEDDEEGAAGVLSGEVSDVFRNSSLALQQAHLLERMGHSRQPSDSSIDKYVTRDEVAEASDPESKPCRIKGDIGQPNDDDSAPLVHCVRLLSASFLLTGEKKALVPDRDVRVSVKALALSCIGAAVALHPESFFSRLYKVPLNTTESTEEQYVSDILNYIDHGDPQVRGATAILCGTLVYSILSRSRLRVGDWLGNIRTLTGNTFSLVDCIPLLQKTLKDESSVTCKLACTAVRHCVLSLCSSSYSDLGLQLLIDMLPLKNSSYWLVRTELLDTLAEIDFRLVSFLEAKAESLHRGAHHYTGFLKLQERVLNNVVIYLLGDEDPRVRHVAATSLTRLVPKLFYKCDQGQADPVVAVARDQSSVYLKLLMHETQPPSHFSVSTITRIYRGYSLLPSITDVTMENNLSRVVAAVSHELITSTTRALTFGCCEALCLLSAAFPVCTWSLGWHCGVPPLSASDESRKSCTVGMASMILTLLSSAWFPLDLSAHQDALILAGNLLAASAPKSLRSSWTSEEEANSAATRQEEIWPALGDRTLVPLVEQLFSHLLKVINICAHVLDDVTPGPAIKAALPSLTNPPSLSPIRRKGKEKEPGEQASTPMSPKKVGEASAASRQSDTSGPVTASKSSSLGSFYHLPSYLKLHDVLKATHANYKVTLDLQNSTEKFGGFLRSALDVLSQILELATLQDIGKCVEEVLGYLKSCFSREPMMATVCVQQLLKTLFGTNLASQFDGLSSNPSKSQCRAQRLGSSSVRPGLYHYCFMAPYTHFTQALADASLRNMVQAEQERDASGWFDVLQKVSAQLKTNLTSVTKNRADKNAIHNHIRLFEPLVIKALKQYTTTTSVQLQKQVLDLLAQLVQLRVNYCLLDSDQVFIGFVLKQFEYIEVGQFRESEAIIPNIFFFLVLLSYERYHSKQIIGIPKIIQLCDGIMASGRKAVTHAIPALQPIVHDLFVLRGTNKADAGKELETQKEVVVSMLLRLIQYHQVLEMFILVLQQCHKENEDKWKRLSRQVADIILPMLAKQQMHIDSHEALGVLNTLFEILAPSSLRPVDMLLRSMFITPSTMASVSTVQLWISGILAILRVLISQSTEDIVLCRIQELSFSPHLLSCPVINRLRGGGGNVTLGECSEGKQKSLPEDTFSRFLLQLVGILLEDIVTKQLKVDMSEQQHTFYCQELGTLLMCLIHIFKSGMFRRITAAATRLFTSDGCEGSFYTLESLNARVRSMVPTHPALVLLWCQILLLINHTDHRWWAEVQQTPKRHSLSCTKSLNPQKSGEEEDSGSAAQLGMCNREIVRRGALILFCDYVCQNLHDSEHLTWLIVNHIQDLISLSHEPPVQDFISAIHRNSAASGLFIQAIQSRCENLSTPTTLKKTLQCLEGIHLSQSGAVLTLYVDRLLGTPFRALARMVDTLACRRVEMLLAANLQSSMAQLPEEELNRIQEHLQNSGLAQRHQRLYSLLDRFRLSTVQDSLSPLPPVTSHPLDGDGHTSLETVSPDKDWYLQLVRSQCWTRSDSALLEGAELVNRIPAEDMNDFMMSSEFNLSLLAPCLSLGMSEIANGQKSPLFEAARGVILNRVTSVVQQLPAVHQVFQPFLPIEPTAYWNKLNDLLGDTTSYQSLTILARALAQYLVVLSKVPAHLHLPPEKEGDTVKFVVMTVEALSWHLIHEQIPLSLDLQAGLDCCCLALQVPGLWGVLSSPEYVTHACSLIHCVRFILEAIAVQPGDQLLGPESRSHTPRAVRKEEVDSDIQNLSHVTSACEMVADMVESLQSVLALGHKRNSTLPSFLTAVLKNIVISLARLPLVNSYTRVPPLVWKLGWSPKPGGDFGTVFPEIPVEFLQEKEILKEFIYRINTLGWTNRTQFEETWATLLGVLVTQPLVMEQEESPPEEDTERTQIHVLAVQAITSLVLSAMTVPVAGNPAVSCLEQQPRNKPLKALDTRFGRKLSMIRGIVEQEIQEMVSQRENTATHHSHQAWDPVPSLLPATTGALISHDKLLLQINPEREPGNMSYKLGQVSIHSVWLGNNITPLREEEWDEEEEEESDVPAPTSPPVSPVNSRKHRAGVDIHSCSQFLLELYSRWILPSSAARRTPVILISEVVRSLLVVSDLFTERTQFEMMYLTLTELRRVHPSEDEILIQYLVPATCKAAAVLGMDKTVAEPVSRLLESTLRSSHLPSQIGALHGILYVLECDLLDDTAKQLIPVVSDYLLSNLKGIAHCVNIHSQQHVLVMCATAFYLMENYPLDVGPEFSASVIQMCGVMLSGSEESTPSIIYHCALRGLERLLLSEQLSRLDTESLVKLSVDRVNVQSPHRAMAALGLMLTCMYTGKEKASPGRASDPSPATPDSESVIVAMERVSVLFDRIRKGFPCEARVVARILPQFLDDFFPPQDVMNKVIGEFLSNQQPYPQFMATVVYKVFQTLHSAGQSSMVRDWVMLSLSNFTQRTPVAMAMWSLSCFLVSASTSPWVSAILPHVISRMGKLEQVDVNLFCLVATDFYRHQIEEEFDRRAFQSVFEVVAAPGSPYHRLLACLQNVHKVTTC

Consider `CCc1c(C)[nH]c2ccc(C(=O)NCCN(CC)CC)cc12` [Compound 4, N-(2-(diethylamino)ethyl)-3-ethyl-2-methyl-1H-indole-5-carboxamide], for which the “highest concentration at which no adverse effects were detected” value in series [1] was found to be 4 µM. Further, in series [2] (setting [8]), the “% Number, Peak 1” value is 100,0% and the “Size, Peak 1” value is 86,77 nm. Further, in series [2] (setting [9]), the “% Volume, Peak 1” value came to 36.1%; the “% Volume, Peak 2” value came out at 36.3%; the “% Volume, Peak 3” value is reported as 27.6%; the “Size, Peak 1” value is given as 107.0 nm. In series [2] (setting [9]), the “Size, Peak 2” value is on record as 313.6 nm and the “Size, Peak 3” value came to 3063 nm. Further, the “aggregation of oligomers of A30P” value in series [2] (equimolar Compound 4) is reported as “induces the formation of aggregates of oligomers of A30P”. In addition, the “solubility in DMSO” value in series [3] (initial batch) is “limited solubility”. This compound also returned a dissolved in water in series [3] (second batch with an HCl modification) of at least 200 mM. Moreover, in series [4], the pEC50 is 6.89. In series [5] (1 µM Compound 4 with 500 µM MPP+ (naïve 40.8)), the movement frequency is 21.0 movement bouts in 30 minutes. For the same compound, the distance moved result in series [5] (1, 10 and 20 µM co-incubated with 500 µM MPP+, compared to MPP+) was “no significant difference”. In series [5] (co-incubation with MPP+, between groups), the “sleep parameters (sleep fragmentation, sleep ratio, velocity, wake bout duration, sleep bout duration)” value is “No statistically significant difference”. Also, the “overall movement during assessment of neuroprotection” value in series [5] (concentrations ~10 µM and ~1 µM) is on record as “subtle increase in overall movement”. Also, in series [5] (drug treatment groups compared to MPP+), the movement frequency result is on record as “no significant difference”.
Turning to `Cc1[nH]c2ccc(C(=O)NCCN(C(C)C)C(C)C)cc2c1C` [Compound 22], in series [6], the “cell viability at 24 hours after treatment” value was “almost equivalent to the cell viability of STHdh 7/7 control cells”. In series [7], the “reduction of CBP colocalization with mHTT” value turned out to be 4 fold.

(Values after patent EP4140481A1, “PROTEIN-OLIGOMER BINDING AGENTS AND THERAPEUTIC USES THEREOF” (Galyan Bio, Inc., priority 2021, dated 2023).)
